Test results from patent publication US11254671B2, “Chemical compounds” (GLAXOSMITHKLINE INTELLECTUAL PROPERTY DEVELOPMENT LIMITED, priority 2017, dated 2022).

Test system: type I collagen deposition in primary lung fibroblasts
Assay: Highthroughput type I collagen deposition (scar-in-a-jar) high content screening assay
Type: cell-based
Details: Homo sapiens, Primary lung fibroblast, 72 h, human pulmonary fibroblasts, TGF-β 1 ng/ml, Ficoll crowding, mean of multiple experiments, read-out: mean pIC50, inhibition of type I collagen deposition (converted)
Experimental: Example 53 Highthroughput Type I Collagen Deposition (Scar-in-a-Jar) High Content Screening Assay
Highthroughput, cellular type I collagen deposition was measured by adapting a published method; scar-in-a-jar (Chen et al., 2009) to primary lung fibroblasts derived from human tissue and combining with high content analysis to permit fluorescent quantification of collagen deposited in the extracellular matrix (ECM). The human biological samples were sourced ethically and their research use was in accord with the terms of the informed consents
Test compounds were dissolved in 100% DMSO to give 10 mM (stocks) and further diluted to give half log dilutions to generate an 11 point concentration response curve. 1 ul was transferred to 384-well plates (Greiner Group, Kremsmunster, Austria, Catalogue No Greine 781280r).
Human pulmonary fibroblasts were maintained in DMEM media (Gibco, Catalogue No 21969) supplemented with 4 mM L-glutamine (Gibco Catalogue No 25030-024) and 10% heat inactivated FBS (Gibco, Catalogue No 10099-141) at 37° C. in 10% CO2. Cells were harvested and resuspended at 4×10^6 cells/ml in a T175 cell culture flask (BD Falcom, Catalogue No: 353112) containing 50 mL of culture media. After 4 days 37° C. in 10% CO2, cells were harvested and seeded at 4000 cells per well (50 μL/well) into 384-well plates (BD Falcon, Catalogue No 353962Greiner) in assay media (0.4% heat inactivated FBS, 4 mM L-glutamine). Plates were sealed with breathable seals (Sigma, Catalogue No. BEM-1). Assay plates were incubated for 72 h at 37° C. in 10% CO2.
Assay media was supplemented with 112.5 mg/ml Ficoll 70 (Sigma, Catalogue No F2878), 75 mg/ml Ficoll 400 (Sigma, Catalogue No F4375) and 50 μg/ml ascorbic acid (Sigma, Catalogue No A8960). 30 μL assay media were added to 1 μl compound (37 μM compound concentration in 1% DMSO). Diluted compounds (10 μL) were transferred to plates containing cells and incubated for 3 h at 37° C. in 10% CO2. Transforming growth factor (TGF)-β (R&D systems, Catalogue No 100-B/CF) was reconstituted to give 10 μg/mL (stock) and further diluted in assay media containing Ficoll and ascorbic acid (1 in 3333). TGF-β was added to cell plates (1 ng/ml final) and cells incubated for 72 h at 37° C. in 10% CO2.
Media was aspirated from cells and 30 μL/well 100% ice-cold methanol added and incubated at RT for 5 min to fix cells. Methanol was aspirated and cells washed with PBS (3×). To block and permeabilise, cells were incubated with PBS containing 1% BSA and 0.1% Triton X 100 for 20 min, followed by PBS wash (3×). Cells were incubated with mouse anti human type I collagen monoclonal antibody (Sigma, Catalogue No C2456) diluted 1:1000 in PBS for 24 h at 4° C. Cells were washed with PBS containing 0.1% Tween-20 (3×) and incubated with secondary alexa fluor 488 goat-anti-mouse antibody (Invitrogen, Catalogue No A11001, 1 in 500 in PBS) and Hoechst 33342 (Sigma, Catalogue No H21492), 1 in 1000 in PBS) for 1 h at RT, prior to washing with PBS containing 0.1% Tween (×4).
Type I collagen immunoreactivity was detected using the INCell 2000 Analyzer (GE Healthcare, INcell 2000) set to excitation and emission wavelengths for DAPI and FITC with laser focus and exposure adjusted to appropriate levels. Images were imported and analysed using Columbus software (Perkin Elmer) and computational algorithms to quantify “total collagen area” and “cell count”.
Data analysis was performed by determining % inhibition values for test compounds relative to the minimum (media only) and maximum responses (TGF-βstimulation) with non-linear regression analysis to determine IC50 values for test compounds.

| Structure (SMILES) | IC50 |
| --- | --- |
| CC[C@H]1COCCN1c1cc(C(C)(C)S(C)(=O)=O)cc(-c2ccc3[nH]c(CO)cc3n2)n1 [Example 32] | 39.8 to 1000 nM |
| CNCc1cc2nc(-c3cc(C(C)(C)S(C)(=O)=O)cc(N4C5CCCC4COC5)n3)ccc2[nH]1 [Example 5, 1-(5-(6-(3-oxa-9-azabicyclo[3.3.1]nonan-9-yl)-4-(2-(methylsulfonyl)propan-2-yl)pyridin-2-yl)-1H-pyrrolo[3,2-b]pyridin-2-yl)-N-methylmethanamine] | 39.8 to 1000 nM |
| CC[C@H]1COCCN1c1cc(C(C)(C)S(N)(=O)=O)cc(-c2ccc3[nH]c(CNC)cc3n2)n1 [Example 28, 2-{2-[(3S)-3-ethylmorpholin-4-yl]-6-{2-[(methylamino)methyl]-1H-pyrrolo[3,2-b]pyridin-5-yl}pyridin-4-yl}propane-2-sulfonamide] | 39.8 to 1000 nM |
| CC[C@H]1COCCN1c1cc(C(C)(C)S(=O)(=O)C2CC2)cc(-c2ccc3[nH]c(CNC)cc3n2)n1 [Example 9, (S)-1-(5-(4-(2-(cyclopropylsulfonyl)propan-2-yl)-6-(3-ethylmorpholino)pyridin-2-yl)-1H-pyrrolo[3,2-b]pyridin-2-yl)-N-methylmethanamine] | 39.8 to 100 nM |
| CNCc1cc2nc(-c3cc(C4(S(C)(=O)=O)CC4)cc(N4CCOC[C@@H]4C)n3)ccc2[nH]1 [Example 20, ({5-[4-(1-methanesulfonylcyclopropyl)-6-[(3S)-3-methylmorpholin-4-yl]pyridin-2-yl]-1H-pyrrolo[3,2-b]pyridin-2-yl}methyl)(methyl)amine] | 39.8 to 1000 nM |
| CC[C@H]1COCCN1c1cc(CS(=O)(=O)N(C)C)cc(-c2ccc3[nH]c(CNC)cc3n2)n1 [Example 17, (S)-1-(2-(3-ethylmorpholino)-6-(2-((methylamino)methyl)-1H-pyrrolo[3,2-b]pyridin-5-yl)pyridin-4-yl)-N,N-dimethylmethanesulfonamide] | 39.8 to 1000 nM |
| CNCc1cc2nc(-c3cc(C4(S(C)(=O)=O)CCOCC4)cc(N4C5CCC4COC5)n3)ccc2[nH]1 [Example 40, ({5-[4-(4-methanesulfonyloxan-4-yl)-6-{3-oxa-8-azabicyclo[3.2.1]octan-8-yl}pyridin-2-yl]-1H-pyrrolo[3,2-b]pyridin-2-yl}methyl)(methyl)amine] | 39.8 to 1000 nM |
| CNCc1cc2nc(-c3cc(CS(C)(=O)=O)cc(N4CC5CCC(C4)O5)n3)ccc2[nH]1 [Example 25, ({5-[4-(methanesulfonylmethyl)-6-{8-oxa-3-azabicyclo[3.2.1]octan-3-yl}pyridin-2-yl]-1H-pyrrolo[3,2-b]pyridin-2-yl}methyl)(methyl)amine] | 39.8 to 1000 nM |
| CC[C@H]1COCCN1c1cc(C2(S(C)(=O)=O)CCOCC2)cc(-c2ccc3[nH]c(CN)cc3n2)n1 [Example 23, 1-(5-{6-[(3S)-3-ethylmorpholin-4-yl]-4-(4-methanesulfonyloxan-4-yl)pyridin-2-yl}-1H-pyrrolo[3,2-b]pyridin-2-yl)methanamine] | 39.8 to 1000 nM |
| CCS(=O)(=O)C(C)(C)c1cc(-c2ccc3[nH]c(CNC)cc3n2)nc(N2CCOC[C@@H]2C)c1 [Example 7, (S)-1-(5-(4-(2-(ethylsulfonyl)propan-2-yl)-6-(3-methylmorpholino)pyridin-2-yl)-1H-pyrrolo[3,2-b]pyridin-2-yl)-N-methylmethanamine] | 39.8 to 1000 nM |
| CNCc1cc2nc(-c3cc(CS(C)(=O)=O)cc(N4CCOC[C@@H]4C)n3)ccc2[nH]1 [Example 6, (S)—N-methyl-1-(5-(6-(3-methylmorpholino)-4-((methylsulfonyl)methyl)pyridin-2-yl)-1H-pyrrolo[3,2-b]pyridin-2-yl)methanamine] | 39.8 to 1000 nM |
| CC[C@H]1COCCN1c1cc(C2(S(=O)(=O)N(C)C)CCOCC2)cc(-c2ccc3[nH]c(CNC)cc3n2)n1 [Example 31, 4-{2-[(3S)-3-ethylmorpholin-4-yl]-6-{2-[(methylamino)methyl]-1H-pyrrolo[3,2-b]pyridin-5-yl}pyridin-4-yl}-N,N-dimethyloxane-4-sulfonamide] | 39.8 to 100 nM |
| CC[C@H]1COCCN1c1cc(CS(=O)(=O)C2CC2)cc(-c2ccc3[nH]c(CNC)cc3n2)n1 [Example 10, (S)-1-(5-(4-((cyclopropylsulfonyl)methyl)-6-(3-ethylmorpholino)pyridin-2-yl)-1H-pyrrolo[3,2-b]pyridin-2-yl)-N-methylmethanamine] | 39.8 to 1000 nM |
| CC[C@H]1COCCN1c1cc(C(C)(C)S(C)(=O)=O)cc(-c2ccc3[nH]c(CN)cc3n2)n1 [Example 21, 1-(5-{6-[(3S)-3-ethylmorpholin-4-yl]-4-(2-methanesulfonylpropan-2-yl)pyridin-2-yl}-1H-pyrrolo[3,2-b]pyridin-2-yl)methanamine] | 39.8 to 1000 nM |
| CC[C@H]1COCCN1c1cc(C2(S(C)(=O)=O)CCOCC2)cc(-c2ccc3[nH]c(CO)cc3n2)n1 [Example 33, (5-{6-[(3S)-3-ethylmorpholin-4-yl]-4-(4-methanesulfonyloxan-4-yl)pyridin-2-yl}-1H-pyrrolo[3,2-b]pyridin-2-yl)methanol] | 39.8 to 1000 nM |
| CC[C@H]1COCCN1c1cc(C2(S(C)(=O)=O)CC2)cc(-c2ccc3[nH]c(CNC)cc3n2)n1 [Example 19, [(5-{6-[(3S)-3-ethylmorpholin-4-yl]-4-(1-methanesulfonylcyclopropyl)pyridin-2-yl}-1H-pyrrolo[3,2-b]pyridin-2-yl)methyl](methyl)amine] | 39.8 to 1000 nM |
| CNCc1cc2nc(-c3cc(C(F)(F)S(C)(=O)=O)cc(N4CCOC[C@@H]4C)n3)ccc2[nH]1 [Example 12, (S)-1-(5-(4-(difluoro(methylsulfonyl)methyl)-6-(3-methylmorpholino)pyridin-2-yl)-1H-pyrrolo[3,2-b]pyridin-2-yl)-N-methylmethanamine] | 39.8 to 1000 nM |
| CC[C@H]1COCCN1c1cc(CS(=O)(=O)N(C)C)cc(-c2ccc3[nH]c(CO)cc3n2)n1 [Example 35, 1-{2-[(3S)-3-ethylmorpholin-4-yl]-6-[2-(hydroxymethyl)-1H-pyrrolo[3,2-b]pyridin-5-yl]pyridin-4-yl}-N,N-dimethylmethanesulfonamide] | 39.8 to 1000 nM |
| CNCc1cc2nc(-c3cc(C(C)(C)S(C)(=O)=O)cc(N4[C@@H]5CC[C@H]4COC5)n3)ccc2[nH]1 [Example 3, 1-(5-(6-((1R,5S)-3-oxa-8-azabicyclo[3.2.1]octan-8-yl)-4-(2-(methylsulfonyl)propan-2-yl)pyridin-2-yl)-1H-pyrrolo[3,2-b]pyridin-2-yl)-N-methylmethanamine] | 39.8 to 1000 nM |
| CC[C@H]1COCCN1c1cc(CS(C)(=O)=O)cc(-c2ccc3[nH]c(CO)cc3n2)n1 [Example 34, (5-{6-[(3S)-3-ethylmorpholin-4-yl]-4-(methanesulfonylmethyl)pyridin-2-yl}-1H-pyrrolo[3,2-b]pyridin-2-yl)methanol] | 39.8 to 1000 nM |
| CC[C@H]1COCCN1c1cc(CS(C)(=O)=O)cc(-c2ccc3[nH]c(CNC)cc3n2)n1 [Example 13, (S)-1-(5-(6-(3-ethylmorpholino)-4-((methylsulfonyl)methyl)pyridin-2-yl)-1H-pyrrolo[3,2-b]pyridin-2-yl)-N-methylmethanamine] | 39.8 to 1000 nM |
| CC[C@H]1COCCN1c1cc(CS(=O)(=O)NC)cc(-c2ccc3[nH]c(CNC)cc3n2)n1 [Example 30, 1-{2-[(3S)-3-ethylmorpholin-4-yl]-6-{2-[(methylamino)methyl]-1H-pyrrolo[3,2-b]pyridin-5-yl}pyridin-4-yl}-N-methylmethanesulfonamide] | 39.8 to 1000 nM |
